Laboratory results published in ChEMBL document CHEMBL1157156, “A novel sesquiterpene lactone from Centaurea pullata: structure elucidation, antimicrobial activity, and prediction of pharmacokinetic properties” (2008).
Converted amounts (≈) assume the structure as drawn.

Tests used:
Alternaria alternata = test: Antimicrobial activity against Alternaria alternata DMS2006 by serial dilution technique; type: functional
Aspergillus niger = test: Antimicrobial activity against Aspergillus niger ATCC 6275 by serial dilution technique; type: functional
Penicillium ochrochloron = test: Antimicrobial activity against Penicillium ochrochloron ATCC 9112 by serial dilution technique; type: functional
Talaromyces funiculosus = test: Antimicrobial activity against Penicillium funiculosum ATCC 36839 by serial dilution technique; type: functional
Pseudomonas tolaasii = test: Antimicrobial activity against Pseudomonas tolaasii by serial dilution technique; type: functional
Escherichia coli = test: Antimicrobial activity against Escherichia coli ATCC 35210 by serial dilution technique; type: functional
Micrococcus luteus = test: Antimicrobial activity against Micrococcus flavus ATCC 10240 by serial dilution technique; type: functional
[1] = tested on: Staphylococcus epidermidis; test: Antimicrobial activity against Staphylococcus epidermidis ATCC 12228 by serial dilution technique; type: functional
Trichoderma viride = test: Antimicrobial activity against Trichoderma viride IAM5061 by serial dilution technique; type: functional
Aspergillus ochraceus = test: Antimicrobial activity against Aspergillus ochraceus ATCC 12066 by serial dilution technique; type: functional
Fusarium tricinctum = test: Antimicrobial activity against Fusarium tricinctum by serial dilution technique; type: functional
Bacillus subtilis = test: Antimicrobial activity against Bacillus subtilis ATCC 10907 by serial dilution technique; type: functional
Aspergillus flavus = test: Antimicrobial activity against Aspergillus flavus ATCC 9643 by serial dilution technique; type: functional
Salmonella enteritidis = test: Antimicrobial activity against Salmonella enteritidis ATCC 13076 by serial dilution technique; type: functional, Salmonella enterica subsp. enterica serovar Enteritidis; conditions: Salmonella enterica

| Compound | MFC (Alternaria alternata) | MIC (Alternaria alternata) | MFC (Aspergillus niger) | MIC (Aspergillus niger) | MFC (Penicillium ochrochloron) | MIC (Penicillium ochrochloron) | MFC (Talaromyces funiculosus) | MIC (Talaromyces funiculosus) | MBC (Pseudomonas tolaasii) | MIC (Pseudomonas tolaasii) | MIC (Escherichia coli) | MBC (Micrococcus luteus) | MIC (Micrococcus luteus) | MBC [1] | MIC [1] | MFC (Trichoderma viride) | MIC (Trichoderma viride) | MFC (Aspergillus ochraceus) | MIC (Aspergillus ochraceus) | MFC (Fusarium tricinctum) | other results |
| --- | --- | --- | --- | --- | --- | --- | --- | --- | --- | --- | --- | --- | --- | --- | --- | --- | --- | --- | --- | --- | --- |
| C=C[C@]1(C)C[C@H](OC(=O)C(=C)CCO)[C@@H]2[C@H](OC(=O)[C@H]2C)[C@H]1C(=C)CO | 0.1 µM (≈ 0.0364 µg/mL) | 0.1 µM (≈ 0.0364 µg/mL) | 0.3 µM (≈ 0.109 µg/mL) | 0.3 µM (≈ 0.109 µg/mL) | 0.2 µM (≈ 0.0729 µg/mL) | 0.2 µM (≈ 0.0729 µg/mL) | 0.3 µM (≈ 0.109 µg/mL) | 0.2 µM (≈ 0.0729 µg/mL) | 0.8 µM (≈ 0.292 µg/mL) | 0.5 µM (≈ 0.182 µg/mL) | 0.4 µM (≈ 0.146 µg/mL) | 0.5 µM (≈ 0.182 µg/mL) | 0.4 µM (≈ 0.146 µg/mL) | 0.8 µM (≈ 0.292 µg/mL) | 0.5 µM (≈ 0.182 µg/mL) | 0.2 µM (≈ 0.0729 µg/mL) | 0.2 µM (≈ 0.0729 µg/mL) | 0.2 µM (≈ 0.0729 µg/mL) | 0.2 µM (≈ 0.0729 µg/mL) | 0.2 µM (≈ 0.0729 µg/mL) | MIC (Fusarium tricinctum): 0.1 µM (≈ 0.0364 µg/mL); MBC (Bacillus subtilis): 0.4 µM (≈ 0.146 µg/mL); MIC (Bacillus subtilis): 0.2 µM (≈ 0.0729 µg/mL); MFC (Aspergillus flavus): 0.2 µM (≈ 0.0729 µg/mL); MIC (Aspergillus flavus): 0.1 µM (≈ 0.0364 µg/mL); MBC (Salmonella enteritidis): 0.4 µM (≈ 0.146 µg/mL); MIC (Salmonella enteritidis): 0.2 µM (≈ 0.0729 µg/mL) |
| C/C1=C\CC/C(CO)=C/[C@H]2OC(=O)[C@@H](C)[C@@H]2[C@@H](O)C1 | 0.7 µM (≈ 0.186 µg/mL) | 0.7 µM (≈ 0.186 µg/mL) | 0.7 µM (≈ 0.186 µg/mL) | 0.7 µM (≈ 0.186 µg/mL) | 0.7 µM (≈ 0.186 µg/mL) | 0.7 µM (≈ 0.186 µg/mL) | 0.7 µM (≈ 0.186 µg/mL) | 0.7 µM (≈ 0.186 µg/mL) | 0.8 µM (≈ 0.213 µg/mL) | 0.8 µM (≈ 0.213 µg/mL) | 1.5 µM (≈ 0.4 µg/mL) | 1.1 µM (≈ 0.293 µg/mL) | 1.1 µM (≈ 0.293 µg/mL) | 1.9 µM (≈ 0.506 µg/mL) | 1.5 µM (≈ 0.4 µg/mL) | 0.7 µM (≈ 0.186 µg/mL) | 0.3 µM (≈ 0.0799 µg/mL) | 0.7 µM (≈ 0.186 µg/mL) | 0.7 µM (≈ 0.186 µg/mL) | 0.7 µM (≈ 0.186 µg/mL) | MIC (Fusarium tricinctum): 0.7 µM (≈ 0.186 µg/mL); MBC (Bacillus subtilis): 1.1 µM (≈ 0.293 µg/mL); MIC (Bacillus subtilis): 0.8 µM (≈ 0.213 µg/mL); MFC (Aspergillus flavus): 0.7 µM (≈ 0.186 µg/mL); MIC (Aspergillus flavus): 0.3 µM (≈ 0.0799 µg/mL); MBC (Salmonella enteritidis): 1.5 µM (≈ 0.4 µg/mL); MIC (Salmonella enteritidis): 1.1 µM (≈ 0.293 µg/mL) |
| CN[C@@H]1[C@H](O[C@H]2[C@H](O[C@H]3[C@H](O)[C@@H](O)[C@H](N=C(N)N)[C@@H](O)[C@@H]3N=C(N)N)O[C@@H](C)[C@]2(O)C=O)O[C@@H](CO)[C@H](O)[C@H]1O [STREPTOMYCIN] | – | – | – | – | – | – | – | – | 1.6 µM (≈ 0.931 µg/mL) | 1.6 µM (≈ 0.931 µg/mL) | 0.8 µM (≈ 0.465 µg/mL) | 1.6 µM (≈ 0.931 µg/mL) | 0.8 µM (≈ 0.465 µg/mL) | 1.6 µM (≈ 0.931 µg/mL) | 1.6 µM (≈ 0.931 µg/mL) | – | – | – | – | – | MBC (Bacillus subtilis): 0.8 µM (≈ 0.465 µg/mL); MIC (Bacillus subtilis): 0.8 µM (≈ 0.465 µg/mL); MBC (Salmonella enteritidis): 1.6 µM (≈ 0.931 µg/mL); MIC (Salmonella enteritidis): 1.6 µM (≈ 0.931 µg/mL) |
| C[C@@H]1C(=O)O[C@H]2[C@H]1[C@@H](O)C[C@]1(C)[C@@H]2[C@@H](C=O)CC[C@H]1O | 0.3 µM (≈ 0.0847 µg/mL) | 0.3 µM (≈ 0.0847 µg/mL) | 0.3 µM (≈ 0.0847 µg/mL) | 0.3 µM (≈ 0.0847 µg/mL) | 0.7 µM (≈ 0.198 µg/mL) | 0.3 µM (≈ 0.0847 µg/mL) | 0.7 µM (≈ 0.198 µg/mL) | 0.7 µM (≈ 0.198 µg/mL) | 0.7 µM (≈ 0.198 µg/mL) | 0.7 µM (≈ 0.198 µg/mL) | 1 µM (≈ 0.282 µg/mL) | 0.7 µM (≈ 0.198 µg/mL) | 0.7 µM (≈ 0.198 µg/mL) | 1.4 µM (≈ 0.395 µg/mL) | 1 µM (≈ 0.282 µg/mL) | 0.7 µM (≈ 0.198 µg/mL) | 0.7 µM (≈ 0.198 µg/mL) | 0.3 µM (≈ 0.0847 µg/mL) | 0.3 µM (≈ 0.0847 µg/mL) | 0.3 µM (≈ 0.0847 µg/mL) | MIC (Fusarium tricinctum): 0.3 µM (≈ 0.0847 µg/mL); MBC (Bacillus subtilis): 0.7 µM (≈ 0.198 µg/mL); MIC (Bacillus subtilis): 0.7 µM (≈ 0.198 µg/mL); MFC (Aspergillus flavus): 0.3 µM (≈ 0.0847 µg/mL); MIC (Aspergillus flavus): 0.3 µM (≈ 0.0847 µg/mL); MBC (Salmonella enteritidis): 1 µM (≈ 0.282 µg/mL); MIC (Salmonella enteritidis): 0.7 µM (≈ 0.198 µg/mL) |
| C=C[C@]1(C)C[C@H](O)[C@@H]2[C@H](OC(=O)[C@H]2C)[C@H]1C(=C)CO | 0.7 µM (≈ 0.186 µg/mL) | 0.7 µM (≈ 0.186 µg/mL) | 0.7 µM (≈ 0.186 µg/mL) | 0.7 µM (≈ 0.186 µg/mL) | 0.7 µM (≈ 0.186 µg/mL) | 0.7 µM (≈ 0.186 µg/mL) | 0.7 µM (≈ 0.186 µg/mL) | 0.7 µM (≈ 0.186 µg/mL) | 2.3 µM (≈ 0.613 µg/mL) | 2.3 µM (≈ 0.613 µg/mL) | 2.3 µM (≈ 0.613 µg/mL) | 2.3 µM (≈ 0.613 µg/mL) | 2.3 µM (≈ 0.613 µg/mL) | 2.3 µM (≈ 0.613 µg/mL) | 2.3 µM (≈ 0.613 µg/mL) | 0.7 µM (≈ 0.186 µg/mL) | 0.3 µM (≈ 0.0799 µg/mL) | 0.7 µM (≈ 0.186 µg/mL) | 0.7 µM (≈ 0.186 µg/mL) | 0.7 µM (≈ 0.186 µg/mL) | MIC (Fusarium tricinctum): 0.7 µM (≈ 0.186 µg/mL); MBC (Bacillus subtilis): 2.3 µM (≈ 0.613 µg/mL); MIC (Bacillus subtilis): 1.5 µM (≈ 0.4 µg/mL); MFC (Aspergillus flavus): 0.7 µM (≈ 0.186 µg/mL); MIC (Aspergillus flavus): 0.7 µM (≈ 0.186 µg/mL); MBC (Salmonella enteritidis): 2.3 µM (≈ 0.613 µg/mL); MIC (Salmonella enteritidis): 2.3 µM (≈ 0.613 µg/mL) |
| Clc1ccc(COC(Cn2ccnc2)c2ccc(Cl)cc2Cl)c(Cl)c1 (configuration not stated) [MICONAZOLE] | 2 µM (≈ 0.832 µg/mL) | 0.4 µM (≈ 0.166 µg/mL) | 8 µM (≈ 3.33 µg/mL) | 3 µM (≈ 1.25 µg/mL) | 10 µM (≈ 4.16 µg/mL) | 4 µM (≈ 1.66 µg/mL) | 10 µM (≈ 4.16 µg/mL) | 4 µM (≈ 1.66 µg/mL) | – | – | – | – | – | – | – | 4 µM (≈ 1.66 µg/mL) | 4 µM (≈ 1.66 µg/mL) | 8 µM (≈ 3.33 µg/mL) | 3 µM (≈ 1.25 µg/mL) | 2 µM (≈ 0.832 µg/mL) | MIC (Fusarium tricinctum): 0.4 µM (≈ 0.166 µg/mL); MFC (Aspergillus flavus): 4 µM (≈ 1.66 µg/mL); MIC (Aspergillus flavus): 1 µM (≈ 0.416 µg/mL) |
| C[C@@H]1C(=O)O[C@@H]2C3[C@H](C=O)CCC[C@]3(C)C[C@H](O)[C@@H]12 (some centres not stated) | 0.2 µM (≈ 0.0533 µg/mL) | 0.2 µM (≈ 0.0533 µg/mL) | 0.6 µM (≈ 0.16 µg/mL) | 0.6 µM (≈ 0.16 µg/mL) | 0.4 µM (≈ 0.107 µg/mL) | 0.4 µM (≈ 0.107 µg/mL) | 0.6 µM (≈ 0.16 µg/mL) | 0.4 µM (≈ 0.107 µg/mL) | 1.1 µM (≈ 0.293 µg/mL) | 0.7 µM (≈ 0.186 µg/mL) | 0.5 µM (≈ 0.133 µg/mL) | 0.7 µM (≈ 0.186 µg/mL) | 0.5 µM (≈ 0.133 µg/mL) | 1.1 µM (≈ 0.293 µg/mL) | 0.7 µM (≈ 0.186 µg/mL) | 0.4 µM (≈ 0.107 µg/mL) | 0.4 µM (≈ 0.107 µg/mL) | 0.4 µM (≈ 0.107 µg/mL) | 0.4 µM (≈ 0.107 µg/mL) | 0.4 µM (≈ 0.107 µg/mL) | MIC (Fusarium tricinctum): 0.2 µM (≈ 0.0533 µg/mL); MBC (Bacillus subtilis): 0.5 µM (≈ 0.133 µg/mL); MIC (Bacillus subtilis): 0.3 µM (≈ 0.0799 µg/mL); MFC (Aspergillus flavus): 0.4 µM (≈ 0.107 µg/mL); MIC (Aspergillus flavus): 0.2 µM (≈ 0.0533 µg/mL); MBC (Salmonella enteritidis): 0.5 µM (≈ 0.133 µg/mL); MIC (Salmonella enteritidis): 0.3 µM (≈ 0.0799 µg/mL) |
